# Test results as given in US9409884B2 (Rigel Pharmaceuticals, Inc., priority 2012, dated 2016).
# Target: AMPK
# Assay: AMPK activation, enzyme-linked immunosorbent assay
# Format: biochemical
# Conditions: Table 8, compounds of Table 1
# In short: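 Read-out: ELISA, used to detect compound-driven activation of AMPK.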
row,EC50 [nM],Compound
1,1000 to 5000,"O=C(NC1CN(Cc2ccncc2)C1)c1ccc(OC2CCN(c3ccc(C(F)(F)F)cc3)CC2)cn1 [Compound 1-42, N-(1-(pyridin-4-ylmethyl)azetidin-3-yl)-5-(1-(4-(trifluoromethyl)phenyl)piperidin-4-yloxy)picolinamide]"
2,< 100,"O=C(NC1CCN(Cc2ccc(F)cc2)CC1)c1cncc(OC2CCN(c3ccc(C(F)(F)F)cc3)CC2)c1 [Compound 1-16, N-(1-(4-fluorobenzyl)piperidin-4-yl)-5-(1-(4-(trifluoromethyl)phenyl)piperidin-4-yloxy)nicotinamide]"
3,100 to 500,"O=C(NC1CCN(Cc2ccncc2)CC1)c1cc2cc(OC3CCN(Cc4ccc(Cl)cc4)CC3)ccc2o1 [Compound 1-77, 5-(1-(4-chlorobenzyl)piperidin-4-yloxy)-N-(1-(pyridin-4-ylmethyl)piperidin-4-yl)benzofuran-2-carboxamide]"
4,< 100,"O=C(NC1CCN(Cc2ccncc2)CC1)c1cc2cc(OC3CCN(c4ccc(OC(F)(F)F)cc4)CC3)ccc2s1 [Compound 1-137, N-(1-(pyridin-4-ylmethyl)piperidin-4-yl)-5-(1-(4-(trifluoromethoxy)phenyl)piperidin-4-yloxy)benzo [b]thiophene-2-carboxamide]"
5,5000 to 10000,"O=C(NC1CCNCC1)c1cc2ccc(OC3CCN(c4ccc(C(F)(F)F)cc4)CC3)cc2o1 [Compound 1-84, N-(piperidin-4-yl)-6-(1-(4-(trifluoromethyl)phenyl)piperidin-4-yloxy)benzofuran-2-carboxamide]"
6,> 10000,"O=C(c1ccc(F)cc1)N1CCC(NS(=O)(=O)c2ccc(OC3CCN(c4ccc(C(F)(F)F)cc4)CC3)nc2)CC1 [Compound 1-60, N-(1-(4-fluorobenzoyl)piperidin-4-yl)-6-(1-(4-(trifluoromethyl)phenyl)piperidin-4-yloxy)pyridine-3-sulfonamide]"
7,100 to 500,"Fc1ccc(CN2CCC(NC3CCc4cc(OC5CCN(c6ccc(C(F)(F)F)cc6)CC5)ccc43)CC2)cc1 (stereo not shown) [Compound 1-159, 1-(4-fluorobenzyl)-N-(5-(1-(4-(trifluoromethyl)phenyl)piperidin-4-yloxy)-2,3-dihydro-1H-inden-1-yl)piperidin-4-amine]"
8,< 100,"O=C(NC1CCN(Cc2ccncc2)CC1)c1cc2ccc(OC3CCN(c4ccc(OC(F)(F)F)cc4)CC3)cc2o1 [Compound 1-88, N-(1-(pyridin-4-ylmethyl)piperidin-4-yl)-6-(1-(4-(trifluoromethoxy)phenyl)piperidin-4-yloxy)benzofuran-2-carboxamide]"

# Same assay, conditions: Table 9, compounds of Table 2
row,EC50 [nM],Compound
1,< 500,"Cn1c2c(c3cc(C(=O)NC4CCN(Cc5ccc(C#N)cc5)CC4)ccc31)CN(Cc1ccc(C(F)(F)F)cc1)CC2 [Compound 2-16, N-(1-(4-cyanobenzyl)piperidin-4-yl)-5-methyl-2-(4-(trifluoromethyl)benzyl)-2,3,4,5-tetrahydro-1H-pyrido[4,3-b]indole-8-carboxamide]"
2,> 100000,"O=C(NC1CCN(Cc2cccnc2)CC1)c1ccc2[nH]c3c(c2c1)CN(c1ccc(F)cc1)CC3 [Compound 2-36, 2-(4-fluorophenyl)-N-(1-(pyridin-3-ylmethyl)piperidin-4-yl)-2,3,4,5-tetrahydro-1H-pyrido[4,3-b]indole-8-carboxamide]"
3,500 to 1000,"O=C(NC1CCN(S(=O)(=O)c2cccnc2)CC1)c1ccc2[nH]c3c(c2c1)CN(Cc1ccc(C(F)(F)F)cc1)CC3 [Compound 2-22, N-(1-(pyridin-3-ylsulfonyl)piperidin-4-yl)-2-(4-(trifluoromethyl)benzyl)-2,3,4,5-tetrahydro-1H-pyrido[4,3-b]indole-8-carboxamide]"

# Same assay, conditions: Table 10, compounds of Table 3
row,EC50 [nM],Compound
1,< 100,"N#Cc1ccc(C(=O)N2CC3CC2CN3C(=O)c2nc3ccc(OC4CCN(c5ccc(C(F)(F)F)cc5)CC4)cc3o2)cc1 (stereo not shown) [Compound 3-12, 4-(5-(6-(1-(4-(trifluoromethyl)phenyl)piperidin-4-yloxy)benzo[d]oxazole-2-carbonyl)-2,5-diazabicyclo[2.2.1]heptane-2-carbonyl)benzonitrile]"

# Same assay, conditions: Table 11, compounds of Table 4
row,EC50 [nM],Compound
1,1000 to 5000,"O=C(NC1CCN(Cc2ccc(C(F)(F)F)cc2)C1)c1ccc(C(=O)N2CCN(c3ccc(Cl)cc3)CC2)cn1 (stereo not shown) [Compound 4-8, 5-(4-(4-chlorophenyl)piperazine-1-carbonyl)-N-(1-(4-(trifluoromethyl)benzyl)pyrrolidin-3-yl)picolinamide]"
2,500 to 1000,"N#Cc1ccc(CN2CCC(NC(=O)c3ccc(C(=O)N4CCN(c5ccc(S(=O)(=O)N6CCCC6)cc5)CC4)nc3)CC2)cc1 [Compound 4-9, N-(1-(4-cyanobenzyl)piperidin-4-yl)-6-(4-(4-(pyrrolidin-1-ylsulfonyl)phenyl)piperazine-1-carbonyl)nicotinamide]"
3,< 500,"O=C(NC1CCN(Cc2ccc(OC(F)(F)F)cc2)C[C@H]1F)c1ccc(C(=O)N2CCN(c3ccc(S(=O)(=O)N4CCCC4)cc3)CC2)nc1 (stereo partly drawn) [Compound 4-14, N-((3,4-trans)-3-fluoro-1-(4-(trifluoromethoxy)benzyl)piperidin-4-yl)-6-(4-(4-(pyrrolidin-1-ylsulfonyl)phenyl)piperazine-1-carbonyl)nicotinamide]"
4,1000 to 5000,"O=C(N[C@H]1CCN(Cc2ccncc2)C1)c1ccc(C(=O)N2CCN(c3ccc(Cl)cc3)CC2)cn1 [Compound 4-5, (S)-5-(4-(4-chlorophenyl)piperazine-1-carbonyl)-N-(1-(pyridin-4-ylmethyl)pyrrolidin-3-yl)picolinamide]"

# Same assay, conditions: Table 12, compounds of Table 5
row,EC50 [nM],Compound
1,10000 to 20000,"COc1ccc(CN2CCC(Oc3ccc(C(=O)NCCCN4CCOCC4)cc3Cl)CC2)cc1 [Compound 5-101, 3-chloro-4-(1-(4-methoxybenzyl)piperidin-4-yloxy)-N-(3-morpholinopropyl)benzamide]"
2,1000 to 10000,"O=C(NC1CCN(Cc2ccccc2)CC1)c1ccc(OC2CCN(Cc3ccccn3)CC2)c(F)c1 [Compound 5-39, N-(1-benzylpiperidin-4-yl)-3-fluoro-4-(1-(pyridin-2-ylmethyl)piperidin-4-yloxy)benzamide]"
3,1000 to 10000,"O=C(NC1CCN(Cc2ccccc2)CC1)c1cccc(OC2CCN(Cc3ccc(C(F)(F)F)cc3)CC2)c1 [Compound 5-52, N-(1-benzylpiperidin-4-yl)-3-(1-(4-(trifluoromethyl)benzyl)piperidin-4-yloxy)benzamide]"
4,1000 to 10000,"CC(C)(C)OC(=O)N1CCC(Oc2ccc(C(=O)NC3CCN(Cc4ccccc4)CC3)cc2F)CC1 [Compound 5-92, tert-butyl 4-(4-(1-benzylpiperidin-4-ylcarbamoyl)-2-fluorophenoxy) piperidine-1-carboxylate]"

# Same assay, conditions: Table 13, compounds of Table 6
row,EC50 [nM],Compound
1,< 100,"O=C(NC1CCN(Cc2ccncc2)CC1)c1cc2cc(C(=O)N3CCC(Oc4ccc(F)cc4)CC3)ccc2o1 [Compound 6-18, 5-(4-(4-fluorophcnoxy)piperidine-1-carbonyl)-N-(1-(pyridin-4-ylmethyl)piperidin-4-yl)benzofuran-2-carboxamide]"
2,< 100,"COc1ccc(CN2CCC(NC(=O)c3cc4cc(C(=O)N5CCN(Cc6ccc(S(=O)(=O)C7CC7)cc6)CC5)ccc4o3)CC2)cc1F [Compound 6-131, 5-(4-(4-(cyclopropylsulfonyl)benzyl)piperazine-1-carbonyl)-N-(1-(3-fluoro-4-methoxybenzyl)piperidin-4-yl)benzofuran-2-carboxamide]"
3,< 100,"CS(=O)(=O)c1ccc(CN2CCN(C(=O)c3ccc4oc(C(=O)NC5CCN(Cc6ccc(C#N)cc6)CC5)cc4c3)CC2)cc1 [Compound 6-123, N-(1-(4-cyanobenzyl)piperidin-4-yl)-5-(4-(4-(methylsulfonyl)benzyl)piperazine-1-carbonyl) benzofuran-2-carboxamide]"
4,< 100,"CS(=O)(=O)c1ccc(OC2CCN(C(=O)c3ccc4oc(C(=O)N[C@@H]5CCN(Cc6ccc(OC(F)(F)F)cc6)C[C@H]5F)cc4c3)CC2)cc1 [Compound 6-155, N-((3,4-trans)-3-fluoro-1-(4-(trifluoromethoxy)benzyl)piperidin-4-yl)-5-(4-(4-(methylsulfonyl)phenoxy)piperidine-1-carbonyl) benzofuran-2-carboxamide]"

# Same assay, conditions: Table 14, compounds of Table 7
row,EC50 [nM],Compound
1,1000 to 10000,"COc1ccc(C(=O)C2CCCN(C(=O)c3ccc(C(=O)NC4CCN(Cc5ccc(F)cc5)CC4)cn3)C2)cc1 (stereo not shown) [Compound 7-9, N-(1-(4-fluorobenzyl)piperidin-4-yl)-6-(3-(4-methoxybenzoyl)piperidine-1-carbonyl)nicotinamide]"
2,< 1000,"COc1ccc(C(=O)C2CCN(C(=O)c3ccc(C(=O)NC4CCN(Cc5ccc(C#N)cc5)C[C@@H]4C)cn3)CC2)cc1 (stereo partly drawn) [Compound 7-93, N-((3,4-cis)-1-(4-cyanobenzyl)-3-methylpiperidin-4-yl)-6-(4-(4-methoxybenzoyl)piperidine-1-carbonyl)nicotinamide]"
3,< 1000,"CC(C)Oc1ccc(CN2CCC(NC(=O)c3ccc(C(=O)N4CCC(C(=O)c5ccc(N6CCCC6)cc5)CC4)nc3)CC2)cc1 [Compound 7-116, N-(1-(4-isopropoxybenzyl)piperidin-4-yl)-6-(4-(4-(pyrrolidin-1-yl)benzoyl)piperidine-1-carbonyl)nicotinamide]"
4,< 1000,"COc1ccc(C(=O)C2CCN(C(=O)c3ccc(C(=O)NC4CCN(Cc5ccc(C#N)cc5)C[C@@H]4C(F)(F)F)cn3)CC2)cc1 (stereo partly drawn) [Compound 7-101, N-((3,4-cis)-1-(4-cyanobenzyl)-3-(trifluoromethyl)piperidin-4-yl)-6-(4-(4-methoxybenzoyl)piperidine-1-carbonyl)nicotinamide]"
5,< 1000,"N#Cc1ccc(CN2CCC(NC(=O)c3ccc(C(=O)N4CCC(C(=O)c5ccc(N6CCCC6)cc5)CC4)nc3)[C@H](F)C2)cc1 (stereo partly drawn) [Compound 7-72, N-((3,4-trans)-1-(4-cyanobenzyl)-3-fluoropiperidin-4-yl)-6-(4-(4-(pyrrolidin-1-yl)benzoyl)piperidine-1-carbonyl)nicotinamide]"
6,< 1000,"COc1ccc(C(=O)C2CCN(C(=O)c3ccc(C(=O)N[C@@H]4CCN(Cc5ccc(C#N)cc5)C[C@H]4F)cn3)CC2)cc1 (single isomer, unassigned) [Compound 7-106]"
7,1000 to 10000,"COc1ccc(C(=O)C2CCN(C(=O)c3ccc(C(=O)NC4CCN(Cc5ccc(OC)c(C#N)c5)CC4(C)C)cn3)CC2)cc1 (stereo not shown) [Compound 7-90, N-(1-(3-cyano-4-methoxybenzyl)-3,3-dimethylpiperidin-4-yl)-6-(4-(4-methoxybenzoyl)piperidine-1-carbonyl)nicotinamide]"
